The test system of series [1] is CT26 cells. Put plainly: CT26 tumor xenograft model, tumor volume. The series is classed as in vivo, BALB/c mice. The protocol: We used a CT26 tumor xenograft model to test the anti-cancer activity of H1b-ADP. Tumor cells (2×10^5 per 100 uL CT26 cells) were inoculated subcutaneously into the right flank of BALB/c mice. At day 6, mice whose tumors had reached 3-5 mm in diameter were randomized and grouped into three groups (n=8 each group), control, HMP-1bP (580 ug), and H1b-ADP (1.2 ug). Injections were performed using a total volume of 20 uL at days 6, 8, 10, 12, and 14 post inoculation. Tumor volumes were calculated every 2 days from caliper measurements of tumor dimension using the formula (L×W^2)/2, where L is the longer measurement.
To test whether H1b-ADP could augment an anti-tumor response by a checkpoint inhibitor, we tested the effects of co-administration with an anti-PD1 antibody. Tumor cells (2×10^5 per 100 μL CT26 cells) were inoculated subcutaneously into the left and right flanks of BALB/c mice. At day 7, mice whose tumors had reached 5 mm in diameter were randomized and grouped (n=8 each group) into the following four groups: anti-PD1 antibody; rat IgG; H1b-ADP+rat IgG; H1b-ADP+anti-PD1 antibody. We utilized RMP1-14 as the anti-PD1 antibody (10 mg/kg) and a rat IgG 2a (2A3) as the control IgG. Each of the anti-PD-1 antibody and the control IgG was administered intraperitoneally in a 200 μL volume on days 6, 10, 12, and 17 post-inoculation. H1b-ADP (6.2 μg) was intratumorally injected in a 20 μL volume at day 6, 8, 10, 12, and 15. Tumor volumes were calculated every 2 days from caliper measurements of tumor dimensions using the formula (L×W^2)/2, where L is the longer measurement. The results are shown in FIG. 13A for injected tumors and FIG. 13B for distant tumors. […]
The experiment was carried out as combo experiments of anti-PD1 except for the following variations. At day 6, mice whose tumors had reached 5 mm in diameter were randomized and grouped into the following four groups: c-di-AM(PS)2; PBS; H1b-ADP; H1b-ADP+c-di-AM(PS)2. We utilized c-di-AM(PS)2 as the STING agonist. Each of the c-di-AM(PS)2 (1 μg) and H1b-ADP (6.2 μg) was administered intratumorally in a 20 μL volume on days 6, 7, and 9 post-inoculation.
The experiment was carried out as combo experiments of anti-PD-1 except for the following variations. At day 6, mice whose tumors had reached 5 mm in diameter were randomized and grouped into the following four groups: anti-CD4 antibody (GK1.5 clone, BE0003-1, BioXcell); rat IgG; H1b-ADP+rat IgG; H1b-ADP+anti-CD4 antibody. Each of the anti-CD4 antibody (200 μg) and the control IgG (200 μg) was administered intraperitoneally in a 200 μL volume on days 3, 4, 8 post-inoculation. H1b-ADP (6.2 μg) was administered intratumorally in a 20 μL volume on days 6, 8, 10, 12, 14 post-inoculation.
The experiment was carried out as combo experiments of anti-PD-1 except for the following variations. At day 6, mice whose tumors had reached 5 mm in diameter were randomized and grouped into the following four groups: Resquimod; PBS; H1b-ADP; H1b-ADP+Resquimod. Resquimod (10 μg) and H1b-ADP (6.2 μg) were administered intratumorally in a 20 μL volume on days 6, 8, 11 post-inoculation.
We used a CT26 tumor xenograft model to test the anti-cancer activity of H1b-ADP derivative Compounds 1 and 2. Tumor cells (2×10^5 per 100 uL CT26 cells) were inoculated subcutaneously into the right flank of BALB/c mice. At day 7, mice whose tumors had reached 3-5 mm in diameter were randomized and grouped into three groups (n=9 each group), control, Compound 1 (50 nmol), and Compound 2 (50 nmol). Injections were performed using a total volume of 20 uL at days 7, 9, and 11 post inoculation. Tumor volumes were calculated every 2 days from caliper measurements of tumor dimension using the formula (L×W^2)/2, where L is the longer measurement.

Series [2] has as its system phosphatase activity in the serum. As to the kind of experiment: Incubation of H1b-ADP with FBS, product analysed by LC-MS. The format is in vitro ADME, bovine. Conditions: incubated with FBS, LC-MS; AMP formed. From the text:
FBS contains 110-352 U/ml alkaline phosphatase.

In series [3] the test system is mouse bone marrow-derived macrophages. Put plainly: Cxcl1 mRNA expression in mouse bone marrow-derived macrophages (qPCR). The series is classed as cell-based. Conditions: 0.4 nM or 2 nM, 2.5 hours. The protocol:
In these experiments, mouse bone marrow-derived macrophages were treated with 0.4 nM or 2 nM H1b-ADP for 2.5 hours and harvested for mRNA expression analysis of Cxcl1 by qPCR. […] Accordingly, very low doses of H1b-ADP, or an agonist thereof, may be used to enhance or potentiate an immune response in a local tissue.
Background: In qPCR the cycle at which signal appears reflects the starting amount.

Series [4] addresses ALPK1 (Homo sapiens, UniProt Q96QP1). Put plainly: Cell-free kinase assay of ALPK1-dependent phosphorylation of IκB. The series is classed as biochemical. Conditions: 2 nM ALPK1, with or without ATP, 1 hour. The protocol:
We next tested whether H1b-ADP-induced autophosphorylation of ALPK1 was effective to activate NFκB using phosphorylation of IκB as a marker for this activity. Phosphorylation assays were performed according to standard protocols and phosphorylated protein was detected by gel electrophoresis and Western blotting using an antibody that detects phosphorylated IκB. Briefly, assays were performed in a 20 μl volume at 25° C. in assay buffer (25 mM HEPES pH 7.5, 50 mM KCl, 0.1 mM EDTA, 0.1 mM EGTA, 2 mM DTT, 1.5 mM CaCl2, 10 mM MgCl2) containing 2 nM ALPK1 and H1b-ADP […] with or without ATP, or either ALPK1 alone or H1b-ADP alone, both in the presence of ATP. After 1 hour of incubation, the reaction was loaded to denaturing gel for protein electrophoresis and Western was performed to detect phosphorylation of IkB using p-IkB antibody (Abcam).

Series [5] has as its system CT26 cells. Put plainly: mRNA expression in CT26 tumor tissue after intratumoral injection (qPCR). The format is in vivo, BALB/c mice. Conditions: 4 hours post intratumoral injection, 2.5 μg, 250 ng, 50 ng. As to the method:
We next asked whether H1b-ADP caused an increase in pro-inflammatory cytokines within the tumor. Tumor cells (2×10^5 per 100 μL CT26 cells) were inoculated subcutaneously into the right flank of BALB/c mice. 2.5 μg (n=2), 250 ng (n=2), 50 ng (n=2) of H1b-ADP or control (n=2) was intratumorally injected (20 uL) at day 7 post inoculation. 4 hours post-injection, tumor issues were dissected and harvested. Total RNA was isolated (TRIzol™, ThermoFisher) and cDNA was synthesized (PrimeScript™ RT reagent Kit, Takara) and amplified (AceQ™ qPCR SYBR™ Green Master Mix, Vazyme Biotech using a QuantStudio™ 7 Flex Real-Time PCR Systems (ThermoFisher) according to manufacturers' protocols.

ALPK1, sequence (Q96QP1 whole entry): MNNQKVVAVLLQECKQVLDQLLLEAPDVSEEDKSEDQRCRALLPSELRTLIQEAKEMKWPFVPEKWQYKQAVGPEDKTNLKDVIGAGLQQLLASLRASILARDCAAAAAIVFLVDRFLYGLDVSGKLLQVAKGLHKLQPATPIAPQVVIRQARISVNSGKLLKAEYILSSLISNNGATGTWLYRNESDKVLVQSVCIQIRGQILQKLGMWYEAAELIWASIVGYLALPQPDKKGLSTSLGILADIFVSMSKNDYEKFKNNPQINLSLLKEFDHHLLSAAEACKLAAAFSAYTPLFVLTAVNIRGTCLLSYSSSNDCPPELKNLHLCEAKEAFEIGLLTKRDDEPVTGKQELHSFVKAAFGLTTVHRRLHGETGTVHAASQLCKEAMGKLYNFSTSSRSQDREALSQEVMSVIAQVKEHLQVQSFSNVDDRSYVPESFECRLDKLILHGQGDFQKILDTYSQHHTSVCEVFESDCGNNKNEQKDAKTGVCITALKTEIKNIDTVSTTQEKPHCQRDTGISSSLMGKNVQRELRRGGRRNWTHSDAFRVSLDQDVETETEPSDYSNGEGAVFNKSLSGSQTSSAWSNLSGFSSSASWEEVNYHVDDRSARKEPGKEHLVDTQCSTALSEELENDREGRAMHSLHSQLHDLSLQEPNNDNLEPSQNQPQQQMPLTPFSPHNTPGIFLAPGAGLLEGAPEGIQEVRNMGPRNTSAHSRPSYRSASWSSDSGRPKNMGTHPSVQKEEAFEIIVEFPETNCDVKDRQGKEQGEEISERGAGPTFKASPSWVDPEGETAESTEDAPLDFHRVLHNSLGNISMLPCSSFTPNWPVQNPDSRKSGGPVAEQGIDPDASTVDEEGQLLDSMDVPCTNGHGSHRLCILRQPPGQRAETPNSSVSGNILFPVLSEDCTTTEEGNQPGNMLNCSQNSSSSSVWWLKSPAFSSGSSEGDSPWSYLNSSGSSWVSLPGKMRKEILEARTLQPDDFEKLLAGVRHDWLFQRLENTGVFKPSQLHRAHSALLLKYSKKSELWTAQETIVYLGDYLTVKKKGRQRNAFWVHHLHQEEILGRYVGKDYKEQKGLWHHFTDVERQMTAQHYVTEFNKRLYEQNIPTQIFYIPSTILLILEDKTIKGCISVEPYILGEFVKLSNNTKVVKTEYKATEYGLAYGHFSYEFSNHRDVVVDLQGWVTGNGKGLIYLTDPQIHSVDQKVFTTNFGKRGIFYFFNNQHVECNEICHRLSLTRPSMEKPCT

Consider `Nc1ncnc2c1ncn2[C@@H]1O[C@H](COP(=O)(O)OP(=O)(O)O[C@@H]2O[C@H]([C@H](O)CO)[C@@H](O)[C@H](O)[C@@H]2O)[C@@H](O)[C@H]1O` [Compound H1b-ADP, D-glycero-D-manno-heptose-1β-ADP], for which the tumor growth result in series [1] (Example 7: H1b-ADP 6.2 μg intratumoral, RMP1-14 10 mg/kg intraperitoneal) is given as “markedly suppressed tumor growth”. Moreover, the tumor growth entry in series [1] (intratumoral, days 6, 8, 10, 12, 14, HMP-1bP 580 ug, H1b-ADP 1.2 ug) was “reduced tumor growth”. The “H1b-ADP amount with increasing incubation time” value in series [2] was “declined”. Moreover, in series [3], the “Cxcl1 mRNA expression, fold change over non-treated control” value is listed as “dose-dependent response”. In addition, the IkB phosphorylation result in series [4] was “detected only in the presence of both ALPK1 and H1b-ADP in the presence of ATP”. Moreover, in series [5], the “PD-1 and PD-L1 expression” value is “increased”; the “mRNA expression of cytotoxic T cell marker CD8, T-helper cell marker CD4, regulatory T cell marker Foxp3 and Th1 cell marker T-bet” value is listed as “increased”; the “mRNA expression of inflammatory cytokine IL-1b, Tnfa, Ifn gamma, and IL-6, and chemokine Cxcl1” value is “increased”.

The values above are taken from patent US11186606B2, “Compositions and methods of modulating the immune response by activating alpha protein kinase 1” (Shanghai Yao Yuan Biotechnology Co., Ltd., priority 2017, dated 2021).
